Results published in patent EP0186173A2, “L-Aminodicarboxylic-(0-cycloalkyl)-L-aminocarboxylate alkyl esters, an edible composition containing same as sweeteners and a method for sweetening an edible composition” (GENERAL FOODS CORPORATION, priority 1984, dated 1986).
Where a SMILES comes first, the peptide text is derived from it. The star is where a group is joined. tBu = CC(C)(C)*

How the values were obtained:
[1] = qualitative statement from prior art / literature; cited from earlier work
[2] = Sweetness taste panel: sucrose equivalency, aqueous solutions matched to sucrose standard solutions; conditions: relative to sucrose
Description: A taste procedure for determination of sweetness merely involves the determination.of sucrose equivalency. Sucrose equivalence for sweeteners are readily determined. The amount of a sweetener that is equivalent to a given weight percent sucrose can be determined by having a panel of tasters taste solutions of a sweetener at known concentrations and match its sweetness to standard solutionsof sucrose.
The following sensory evaluations were obtained by a panel of experts using known weight percent aqueous solutions of the above compound matched to sucrose standard solutions as previously described.

SMILES	sweetness [1]	sweetness equivalent [2]
COC(=O)[C@H](COC(C)(C)C)NC(=O)[C@@H](N)CC(=O)O [L-aspartyl-0-t,- butyl-L-serine methyl ester] (H-Asp-Ser(tBu)-OMe)	significant sweetness	–
CCC(C)(C)OC[C@H](NC(=O)[C@@H](N)CC(=O)O)C(=O)OC [L-aspartyl-0-t-amyl-L-serine methyl ester]	significant sweetness	–
CCOC(=O)[C@H](COC1(C)CCCC1)NC(=O)[C@@H](N)CC(=O)O [∝-L-Aspartyl-O-(1-methylcyclopentyl)-L-serine ethyl ester]	–	150 x sucrose
